Measurements as given in US7906491B2 (Univisitair Medisch Centrum Utrecht, priority 2002, dated 2011).

Experiments:
[1] = molecular target: T1, Epac1-ΔDEP1 (Homo sapiens, UniProt O95398); test: In vitro GEF assay: Epac activity in the exchange reaction towards Rap (mantGDP-loaded Rap1b); format: biochemical; details: in vitro in the exchange reaction towards Rap; further: key: +++: activity comparible to I-007; ++: activity between I-007 and cAMP; +: activity comparible to cAMP; ±: activity less than cAMP
T1 sequence (O95398 191-923 limits assumed): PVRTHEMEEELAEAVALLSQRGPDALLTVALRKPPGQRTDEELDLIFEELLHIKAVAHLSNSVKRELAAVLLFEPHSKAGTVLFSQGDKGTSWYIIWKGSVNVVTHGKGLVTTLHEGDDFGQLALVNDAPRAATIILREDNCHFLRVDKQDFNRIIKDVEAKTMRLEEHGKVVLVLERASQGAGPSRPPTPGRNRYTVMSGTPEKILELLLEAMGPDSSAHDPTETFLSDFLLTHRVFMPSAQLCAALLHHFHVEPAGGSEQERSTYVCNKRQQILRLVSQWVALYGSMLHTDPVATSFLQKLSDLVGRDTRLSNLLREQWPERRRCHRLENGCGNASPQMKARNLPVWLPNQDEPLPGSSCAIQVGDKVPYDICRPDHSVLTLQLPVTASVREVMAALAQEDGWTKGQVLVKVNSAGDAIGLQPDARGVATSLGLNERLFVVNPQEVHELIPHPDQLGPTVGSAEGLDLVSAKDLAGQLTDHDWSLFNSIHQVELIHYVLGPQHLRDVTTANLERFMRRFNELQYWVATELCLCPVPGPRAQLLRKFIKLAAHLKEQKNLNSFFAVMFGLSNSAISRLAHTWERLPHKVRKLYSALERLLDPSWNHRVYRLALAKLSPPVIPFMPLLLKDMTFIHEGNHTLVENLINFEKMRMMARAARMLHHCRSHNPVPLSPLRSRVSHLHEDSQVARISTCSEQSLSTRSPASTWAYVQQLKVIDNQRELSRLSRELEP
Description: In vitro GEF assays were performed as described (3,16). […] Buffer conditions were 50 mM Tris pH7.4, 150 mM NaCl, 5% glycerol, 5 mM DTE, 60 μM GTP. Reactions were carried out in 96-well plates and measured in a Cary Eclipse from Varian Inc., using the manufacturers software.

[2] = molecular target: T2, Epac (Homo sapiens, UniProt O95398); test: Relative affinity for Epac (cAMP = 1), in vitro; format: binding; details: relative to cAMP = 1
T2 sequence (O95398 1-923): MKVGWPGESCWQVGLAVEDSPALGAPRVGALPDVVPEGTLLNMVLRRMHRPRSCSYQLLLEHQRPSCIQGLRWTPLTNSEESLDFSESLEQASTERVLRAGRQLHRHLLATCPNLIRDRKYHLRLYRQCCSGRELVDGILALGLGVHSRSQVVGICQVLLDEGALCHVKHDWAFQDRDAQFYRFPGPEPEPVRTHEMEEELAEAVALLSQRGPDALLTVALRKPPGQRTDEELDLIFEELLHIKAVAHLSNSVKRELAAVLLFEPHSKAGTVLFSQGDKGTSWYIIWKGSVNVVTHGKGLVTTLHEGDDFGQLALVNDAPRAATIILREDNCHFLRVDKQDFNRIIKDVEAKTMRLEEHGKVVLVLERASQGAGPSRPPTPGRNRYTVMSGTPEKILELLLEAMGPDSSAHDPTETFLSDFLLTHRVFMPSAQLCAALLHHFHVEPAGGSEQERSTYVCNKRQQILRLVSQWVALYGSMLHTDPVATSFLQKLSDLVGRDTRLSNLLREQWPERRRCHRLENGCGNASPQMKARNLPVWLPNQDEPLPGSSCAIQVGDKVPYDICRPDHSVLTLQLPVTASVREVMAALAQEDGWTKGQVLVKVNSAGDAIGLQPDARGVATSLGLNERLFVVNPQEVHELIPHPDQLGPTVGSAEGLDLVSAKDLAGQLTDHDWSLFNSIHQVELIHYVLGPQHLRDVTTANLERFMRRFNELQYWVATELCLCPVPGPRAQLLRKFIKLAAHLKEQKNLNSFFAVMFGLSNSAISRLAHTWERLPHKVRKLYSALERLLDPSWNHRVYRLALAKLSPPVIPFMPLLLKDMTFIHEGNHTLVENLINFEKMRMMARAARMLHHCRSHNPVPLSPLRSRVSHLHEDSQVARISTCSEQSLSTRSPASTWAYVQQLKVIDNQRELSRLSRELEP

[3] = test system: PKAI; test: Relative affinity for PKAI (cAMP = 1), in vitro; format: binding; details: relative to cAMP = 1
[4] = test system: PKAII; test: Relative affinity for PKAII (cAMP = 1), in vitro; format: binding; details: relative to cAMP = 1

## CCSc1nc2c(N)ncnc2n1C1OC2COP(=O)(O)OC2C1OC (centres unmarked) [Compound I-117, 8-ethylthio-2′-O-methyladenosine-3′,5′-cyclic monophosphate]
[1]
  Relative activity of Epac*: +
[2]
  Relative affinity CAMP = 1 Epac: 1.8

## 8-(2-hydroxy-ethylthio)-2′-O-methyladenosine-3′,5′-cyclic monophosphate [Compound I-116]
[1]
  Relative activity of Epac*: +
[2]
  Relative affinity CAMP = 1 Epac: 1.2

## 8-bromo-2′-O-methyladenosine-3′,5′-cyclic monophosphorothioate, Sp-isomer [Compound I-133]
[1]
  Relative activity of Epac*: +

## 8-methylthio-2′-O-methyladenosine-3′,5′-cyclic monophosphate [Compound I-101]
[1]
  Relative activity of Epac*: +
[2]
  Relative affinity CAMP = 1 Epac: 1.3
[3]
  Relative affinity CAMP = 1 PKAI: 0.012
[4]
  Relative affinity CAMP = 1 PKAII: 0.0006

## 8-(4-hydroxy-phenylthio)-2′-O-methyladenosine-3′,5′-cyclic monophosphate [Compound I-125]
[1]
  Relative activity of Epac*: +++
[2]
  Relative affinity CAMP = 1 Epac: 6.4

## 8-(4-methyl-phenylthio)-2′-O-methyladenosine-3′,5′-cyclic monophosphate [Compound I-121]
[1]
  Relative activity of Epac*: +++
[2]
  Relative affinity CAMP = 1 Epac: 5.1

## 2′-O-ethyladenosine-3′,5′-cyclic monophosphate [Compound I-008]
[1]
  Relative activity of Epac*: +
[2]
  Relative affinity CAMP = 1 Epac: 0.05
[3]
  Relative affinity CAMP = 1 PKAI: 0.0043

## 2′-O-propyladenosine-3′,5′-cyclic monophosphate [Compound I-009]
[1]
  Relative activity of Epac*: +
[2]
  Relative affinity CAMP = 1 Epac: 0.03
[3]
  Relative affinity CAMP = 1 PKAI: 0.001

## 8-(4-Chloro-phenylthio)-inosine-3′,5′-cyclic monophosphate [Compound I-139]
[1]
  Relative activity of Epac*: +

## 8-(2,4-dichloro-phenylthio)-2′-O-methyladenosine-3′,5′-cyclic monophosphate [Compound I-126]
[1]
  Relative activity of Epac*: ++
[2]
  Relative affinity CAMP = 1 Epac: 3.1

## 8-phenylethylamino-2′-O-methyladenosine-3′,5′-cyclic monophosphate [Compound I-111]
[1]
  Relative activity of Epac*: ±
[2]
  Relative affinity CAMP = 1 Epac: 0.08

## 8-(benzothiazolyl-2-thio)-2′-O-methyladenosine-3′,5′-cyclic monophosphate [Compound I-120]
[1]
  Relative activity of Epac*: +
[2]
  Relative affinity CAMP = 1 Epac: 0.17

## 8-(4-chloro-phenylthio)-2′-O-methyladenosine-3′,5′-cyclic monophosphorothioate, Sp-isomer [Compound I-134]
[1]
  Relative activity of Epac*: +

## 8-bromo-2′-deoxyadenosine-3′,5′-cyclic monophosphorothioate, Rp-isomer [Compound I-135]
[1]
  Relative activity of Epac*: +

## 2′-O-n-butyladenosine-3′,5′-cyclic monophosphate [Compound I-010]
[1]
  Relative activity of Epac*: +
[2]
  Relative affinity CAMP = 1 Epac: 0.03
[3]
  Relative affinity CAMP = 1 PKAI: 0.0008

## 2′-O-methyladenosine-3′,5′-cyclic monophosphate [Compound I-005]
[2]
  Relative affinity CAMP = 1 Epac: 0.12
[3]
  Relative affinity CAMP = 1 PKAI: 0.005
[4]
  Relative affinity CAMP = 1 PKAII: 0.005

## O=[P@]1(O)OC[C@H]2O[C@@H](n3c(Sc4ccc(Cl)cc4)nc4c(Nc5ccccc5)ncnc43)C[C@@H]2O1 [Compound I-004, 8-(4-chloro-phenylthio)-N^6-phenyl-2′-deoxyadenosine-3′,5′-cyclic monophosphate]
[2]
  Relative affinity CAMP = 1 Epac: 0.5
[3]
  Relative affinity CAMP = 1 PKAI: 0.03
[4]
  Relative affinity CAMP = 1 PKAII: 0.26

## 8-(2-amino-ethylthio)-2′-O-methyladenosine-3′,5′-cyclic monophosphate [Compound I-118]
[1]
  Relative activity of Epac*: ±
[2]
  Relative affinity CAMP = 1 Epac: 0.34

## 8-(4-chloro-phenylthio)-2′-O-methyladenosine-3′,5′-cyclic monophosphorothioate, Rp-isomer [Compound I-130]
[1]
  Relative activity of Epac*: ±
[2]
  Relative affinity CAMP = 1 Epac: 0.06

## 8-(4-isopropyl-phenylthio)-2′-O-methyladenosine-3′,5′-cyclic monophosphate [Compound I-123]
[1]
  Relative activity of Epac*: ++
[2]
  Relative affinity CAMP = 1 Epac: 4.8

## 8-(benzimidazolyl-2-thio)-2′-O-methyladenosine-3′,5′-cyclic monophosphate [Compound I-115]
[1]
  Relative activity of Epac*: +
[2]
  Relative affinity CAMP = 1 Epac: 0.09

## 8-methoxy-2′-O-methyladenosine-3′,5′-cyclic monophosphate [Compound I-131]
[1]
  Relative activity of Epac*: +
[2]
  Relative affinity CAMP = 1 Epac: 0.36

## 8-chloro-2′-O-methyladenosine-3′,5′-cyclic monophosphate [Compound I-141]
[2]
  Relative affinity CAMP = 1 Epac: 0.92
[3]
  Relative affinity CAMP = 1 PKAI: 0.012
[4]
  Relative affinity CAMP = 1 PKAII: 0.0002

## 8-benzyloxy-2′-O-methyladenosine-3′,5′-cyclic monophosphate [Compound I-132]
[1]
  Relative activity of Epac*: +
[2]
  Relative affinity CAMP = 1 Epac: 0.18

## 2′-O-isobutyladenosine-3′,5′-cyclic monophosphate [Compound I-011]
[1]
  Relative activity of Epac*: ±
[2]
  Relative affinity CAMP = 1 Epac: 0.017
[3]
  Relative affinity CAMP = 1 PKAI: 0.0009

## 8-(4-chloro-phenylthio)-2′-deoxyadenosine-3′,5′-cyclic monophosphorothioate, Rp-isomer [Compound I-137]
[1]
  Relative activity of Epac*: +

## 8-cyclohexylamino-2′-deoxyadenosine-3′,5′-cyclic monophosphate [Compound I-140]
[1]
  Relative activity of Epac*: +

## 8-bromo-2′-O-methyladenosine-3′,5′-cyclic monophosphorothioate, Rp-isomer [Compound I-129]
[1]
  Relative activity of Epac*: ±
[2]
  Relative affinity CAMP = 1 Epac: 0.05

## Nc1ncnc2c1nc(Br)n2[C@H]1C[C@@H]2O[P@@](=O)(S)OC[C@H]2O1 [Compound I-136, 8-bromo-2′-deoxyadenosine-3′,5′-cyclic monophosphorothioate, Sp-isomer]
[1]
  Relative activity of Epac*: +

## 8-(4-chloro-phenylthio)-2′-deoxyadenosine-3′,5′-cyclic monophosphorothioate, Sp-isomer [Compound I-138]
[1]
  Relative activity of Epac*: +

## 8-(4-chloro-phenylthio)-2′-(N,N-dimethyl)-carbamoyl-adenosine-3′,5′-cyclic monophosphate [Compound I-127]
[2]
  Relative affinity CAMP = 1 Epac: <0.002

## 8-(2,3,5,6-tetrafluoro-phenylthio)-2′-O-methyladenosine-3′,5′-cyclic monophosphate [Compound I-124]
[1]
  Relative activity of Epac*: ++
[2]
  Relative affinity CAMP = 1 Epac: 4.7

## 8-(pyridinyl-2-thio)-2′-O-methyladenosine-3′,5′-cyclic monophosphate [Compound I-119]
[1]
  Relative activity of Epac*: ++
[2]
  Relative affinity CAMP = 1 Epac: 0.8

## 8-(3-methoxy-phenylthio)-2′-O-methyladenosine-3′,5′-cyclic monophosphate [Compound I-122]
[1]
  Relative activity of Epac*: +
[2]
  Relative affinity CAMP = 1 Epac: 2
